“Also recorded” adds a separate entry of the source. Like-named read-outs stand apart in the source and are kept apart here. Each block holds one compound with its values, some of them ahead of it.
What was measured:
FGFR1 [1] = biological target: T1, FGFR1 (Homo sapiens, UniProt P11362); conditions: molecular assay, versus sorafenib
VEGFR2 [2] = biological target: T2, VEGFR2 (Homo sapiens, UniProt P35968); assay type: biochemical; conditions: pre-incubation 30 min., 100-fold dilution
Target sequence in this assay (P35968 834-1162 limits assumed): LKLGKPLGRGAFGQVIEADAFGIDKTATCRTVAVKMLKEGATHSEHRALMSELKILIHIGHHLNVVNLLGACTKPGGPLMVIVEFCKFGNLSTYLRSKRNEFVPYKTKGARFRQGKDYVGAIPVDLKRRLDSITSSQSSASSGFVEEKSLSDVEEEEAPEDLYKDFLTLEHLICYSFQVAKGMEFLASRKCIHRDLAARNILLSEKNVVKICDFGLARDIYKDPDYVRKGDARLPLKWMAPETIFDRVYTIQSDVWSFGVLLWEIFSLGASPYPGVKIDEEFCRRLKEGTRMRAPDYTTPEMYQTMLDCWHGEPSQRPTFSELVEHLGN

PDGFRβ [3] = biological target: PDGFRβ (Mus musculus, UniProt P05622); experiment: PDGFBB-induced PDGFRβ autophosphorylation in Swiss3T3; assay type: cell-based, rat
[4] = Plasma pharmacokinetics after p.o. administration; assay type: in vivo, rats
[5] = Toxicity observed in panel of human xenograft models; assay type: in vivo, nude mice; conditions: p.o., 5 days per week, 5–20 mg/kg
HUVEC cells [6] = experiment: b-FGF-driven HUVEC proliferation; assay type: cell-based; conditions: Homo sapiens, read-out: IC50 bFGF-driven HUVECs proliferation
EPH-B2 = EPH-B2 (Homo sapiens, UniProt P29323); experiment: ELISA kinase assay EPH-B2; assay type: biochemical
[7] = tested on: Bxpc-3 pancreatic cancer xenograft; experiment: Tumour xenograft Bxpc-3; assay type: in vivo, nude mice; conditions: Bxpc-3 model, dosages below 20 mg/kg
HUVEC cells [8] = experiment: VEGF-driven HUVEC proliferation; assay type: cell-based; conditions: Homo sapiens, read-out: IC50 VEGF-driven HUVECs proliferation
[9] = Tissue distribution in tumour-bearing nude mice; assay type: in vivo; conditions: for concentration at 21 day: nude, mouse, oral, 10 mg/kg
FGFR1 [10] = biological target: T1, FGFR1; experiment: biochemical
PDGFRβ [11] = biological target: T3, PDGFRβ (Homo sapiens, UniProt P09619); experiment: ELISA kinase assay PDGFRβ; assay type: biochemical
[12] = tested on: 786-O renal carcinoma xenograft; experiment: Tumour xenograft 786-O; assay type: in vivo, nude mice; conditions: 786-O model, dosages below 20 mg/kg
[13] = tested on: 16 different tumour cell lines; experiment: Tumour cell lines proliferation in vitro; assay type: cell-based; conditions: read-out: average IC50 against 16 tumour cell lines proliferation
[14] = tested on: renal carcinoma xenograft No.213847; experiment: Patient-derived renal carcinoma xenograft No.213847; assay type: in vivo, nude mice
[15] = tested on: renal carcinoma xenograft (No.213847); experiment: PDGFRβ immunohistochemistry of tumour pericytes; assay type: in vivo, nude mice; conditions: 5 days
VEGFR2 [16] = biological target: T2, VEGFR2
Target sequence in this assay (P35968 20-1356): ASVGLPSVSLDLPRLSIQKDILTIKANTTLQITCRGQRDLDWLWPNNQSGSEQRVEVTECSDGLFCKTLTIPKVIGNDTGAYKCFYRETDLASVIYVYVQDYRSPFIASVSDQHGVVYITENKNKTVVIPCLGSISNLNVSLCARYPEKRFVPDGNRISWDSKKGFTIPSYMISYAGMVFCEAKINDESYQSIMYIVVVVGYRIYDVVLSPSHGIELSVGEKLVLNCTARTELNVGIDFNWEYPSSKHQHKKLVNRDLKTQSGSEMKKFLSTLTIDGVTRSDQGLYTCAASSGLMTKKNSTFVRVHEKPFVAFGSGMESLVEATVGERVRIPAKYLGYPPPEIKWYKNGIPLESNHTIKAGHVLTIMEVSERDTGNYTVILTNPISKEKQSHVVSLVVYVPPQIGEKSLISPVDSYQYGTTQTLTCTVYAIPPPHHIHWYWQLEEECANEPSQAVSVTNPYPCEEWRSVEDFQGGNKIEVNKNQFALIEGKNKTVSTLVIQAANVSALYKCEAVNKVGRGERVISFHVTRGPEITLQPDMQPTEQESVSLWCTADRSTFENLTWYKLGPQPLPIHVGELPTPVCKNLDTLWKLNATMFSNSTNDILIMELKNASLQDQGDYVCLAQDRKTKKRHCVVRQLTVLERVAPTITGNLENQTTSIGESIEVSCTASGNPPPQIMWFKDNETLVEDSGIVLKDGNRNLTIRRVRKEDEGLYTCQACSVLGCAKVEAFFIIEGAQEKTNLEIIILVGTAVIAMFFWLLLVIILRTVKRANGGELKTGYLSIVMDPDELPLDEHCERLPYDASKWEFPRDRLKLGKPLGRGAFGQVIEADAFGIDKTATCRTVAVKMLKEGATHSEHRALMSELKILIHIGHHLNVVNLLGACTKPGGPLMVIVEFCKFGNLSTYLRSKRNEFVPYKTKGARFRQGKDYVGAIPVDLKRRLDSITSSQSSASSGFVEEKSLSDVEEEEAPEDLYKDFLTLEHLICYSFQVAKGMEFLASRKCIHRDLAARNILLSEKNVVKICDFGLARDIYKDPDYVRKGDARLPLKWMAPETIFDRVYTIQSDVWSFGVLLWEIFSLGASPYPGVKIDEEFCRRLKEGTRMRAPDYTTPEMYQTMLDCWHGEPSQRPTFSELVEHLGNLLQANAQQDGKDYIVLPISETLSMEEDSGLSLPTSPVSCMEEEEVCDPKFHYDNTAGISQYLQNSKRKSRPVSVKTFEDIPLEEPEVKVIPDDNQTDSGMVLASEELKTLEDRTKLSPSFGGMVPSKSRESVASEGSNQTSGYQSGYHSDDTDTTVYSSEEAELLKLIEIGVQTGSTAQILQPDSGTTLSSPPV

PDGFRβ [17] = biological target: T3, PDGFRβ; conditions: read-out: IC50 PDGFRβ phosphorylation in vitro assay; ref 17 Bello et al.; cited from earlier work
VEGFR2 [18] = biological target: T2, VEGFR2; assay type: biochemical; conditions: varying concentrations of ATP
Target sequence in this assay (P35968 834-1162 limits assumed): as the sequence (P35968 834-1162 limits assumed) above

FGFR1 [19] = biological target: T1, FGFR1; experiment: bFGF-induced FGFR1 autophosphorylation in HUVEC; assay type: cell-based; conditions: b-FGF 25 ng/ml
VEGFR2 [20] = biological target: T2, VEGFR2; experiment: Cellular VEGFR2 autophosphorylation reversible assay; assay type: cell-based; conditions: HUVEC, 1 μmol/L for 4 hrs
Target sequence in this assay (P35968 20-1356): as the sequence (P35968 20-1356) above

c-Src = c-Src (Homo sapiens, UniProt P12931); experiment: biochemical
c-Kit = c-Kit (Homo sapiens, UniProt P10721); experiment: ELISA kinase assay c-Kit; assay type: biochemical
[21] = tested on: renal carcinoma xenograft (No.213847); experiment: CD31 immunohistochemistry of tumour microvessels; assay type: in vivo, nude mice; conditions: five consecutive days
ERK1/2 and AKT = experiment: VEGF-induced activation of ERK1/2 and AKT; assay type: cell-based; conditions: VEGF165 50 ng/ml
VEGFR1 = VEGFR1 (Homo sapiens, UniProt P17948); experiment: ELISA kinase assay VEGFR1; assay type: biochemical
[22] = tested on: chicken chorioallantoic membrane; experiment: Chicken chorioallantoic membrane assay; assay type: in vivo; conditions: 48 hrs
PDGFRα [23] = biological target: T4, PDGFRα (Homo sapiens, UniProt P16234); conditions: read-out: IC50 PDGFRα phosphorylation in vitro assay; ref 17 Bello et al.; cited from earlier work
PDGFRα [24] = biological target: T4, PDGFRα; experiment: ELISA kinase assay PDGFRα; assay type: biochemical
VEGFR2 [25] = biological target: T2, VEGFR2; experiment: biochemical
Target sequence in this assay (P35968 834-1162 limits assumed): as the sequence (P35968 834-1162 limits assumed) above

RET = RET (Homo sapiens, UniProt P07949); experiment: ELISA kinase assay RET; assay type: biochemical
EPH-A2 = EPH-A2 (Homo sapiens, UniProt P29317); experiment: ELISA kinase assay EPH-A2; assay type: biochemical; conditions: IC50 EPHA2, ELISA
[26] = tested on: renal carcinoma xenograft No.20090223; experiment: Patient-derived renal carcinoma xenograft No.20090223; assay type: in vivo, nude mice
[27] = day 21 versus first administration

Chain of PDGFRβ (Mus musculus, UniProt P05622) (P05622 32-1098): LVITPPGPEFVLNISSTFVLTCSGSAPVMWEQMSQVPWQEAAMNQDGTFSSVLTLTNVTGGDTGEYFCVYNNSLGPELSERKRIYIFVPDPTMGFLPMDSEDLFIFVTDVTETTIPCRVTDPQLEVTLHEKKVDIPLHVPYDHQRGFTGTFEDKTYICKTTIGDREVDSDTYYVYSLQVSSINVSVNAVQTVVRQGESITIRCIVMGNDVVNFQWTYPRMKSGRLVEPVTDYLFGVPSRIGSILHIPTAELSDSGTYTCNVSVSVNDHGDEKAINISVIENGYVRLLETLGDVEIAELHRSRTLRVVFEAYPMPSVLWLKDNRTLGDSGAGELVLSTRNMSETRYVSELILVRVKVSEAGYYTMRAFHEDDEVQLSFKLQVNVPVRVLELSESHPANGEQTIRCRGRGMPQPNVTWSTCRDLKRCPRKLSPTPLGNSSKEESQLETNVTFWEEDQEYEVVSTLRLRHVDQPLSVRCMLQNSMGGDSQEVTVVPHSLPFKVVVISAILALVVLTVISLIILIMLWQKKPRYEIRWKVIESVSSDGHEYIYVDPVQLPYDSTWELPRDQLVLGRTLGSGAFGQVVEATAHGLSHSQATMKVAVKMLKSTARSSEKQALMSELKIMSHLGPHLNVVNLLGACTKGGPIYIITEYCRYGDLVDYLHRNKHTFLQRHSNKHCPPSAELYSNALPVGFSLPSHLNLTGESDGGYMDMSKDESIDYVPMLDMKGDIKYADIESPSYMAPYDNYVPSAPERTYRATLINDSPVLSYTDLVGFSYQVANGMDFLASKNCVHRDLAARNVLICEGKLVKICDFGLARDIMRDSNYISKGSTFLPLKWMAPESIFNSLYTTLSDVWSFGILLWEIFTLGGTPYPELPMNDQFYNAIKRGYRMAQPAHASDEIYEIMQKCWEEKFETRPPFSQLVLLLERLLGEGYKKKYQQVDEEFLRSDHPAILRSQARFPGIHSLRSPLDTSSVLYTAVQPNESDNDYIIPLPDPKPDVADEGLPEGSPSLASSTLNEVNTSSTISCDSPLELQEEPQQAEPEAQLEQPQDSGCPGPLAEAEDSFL
T4 sequence (P16234 24-1089, species assumed): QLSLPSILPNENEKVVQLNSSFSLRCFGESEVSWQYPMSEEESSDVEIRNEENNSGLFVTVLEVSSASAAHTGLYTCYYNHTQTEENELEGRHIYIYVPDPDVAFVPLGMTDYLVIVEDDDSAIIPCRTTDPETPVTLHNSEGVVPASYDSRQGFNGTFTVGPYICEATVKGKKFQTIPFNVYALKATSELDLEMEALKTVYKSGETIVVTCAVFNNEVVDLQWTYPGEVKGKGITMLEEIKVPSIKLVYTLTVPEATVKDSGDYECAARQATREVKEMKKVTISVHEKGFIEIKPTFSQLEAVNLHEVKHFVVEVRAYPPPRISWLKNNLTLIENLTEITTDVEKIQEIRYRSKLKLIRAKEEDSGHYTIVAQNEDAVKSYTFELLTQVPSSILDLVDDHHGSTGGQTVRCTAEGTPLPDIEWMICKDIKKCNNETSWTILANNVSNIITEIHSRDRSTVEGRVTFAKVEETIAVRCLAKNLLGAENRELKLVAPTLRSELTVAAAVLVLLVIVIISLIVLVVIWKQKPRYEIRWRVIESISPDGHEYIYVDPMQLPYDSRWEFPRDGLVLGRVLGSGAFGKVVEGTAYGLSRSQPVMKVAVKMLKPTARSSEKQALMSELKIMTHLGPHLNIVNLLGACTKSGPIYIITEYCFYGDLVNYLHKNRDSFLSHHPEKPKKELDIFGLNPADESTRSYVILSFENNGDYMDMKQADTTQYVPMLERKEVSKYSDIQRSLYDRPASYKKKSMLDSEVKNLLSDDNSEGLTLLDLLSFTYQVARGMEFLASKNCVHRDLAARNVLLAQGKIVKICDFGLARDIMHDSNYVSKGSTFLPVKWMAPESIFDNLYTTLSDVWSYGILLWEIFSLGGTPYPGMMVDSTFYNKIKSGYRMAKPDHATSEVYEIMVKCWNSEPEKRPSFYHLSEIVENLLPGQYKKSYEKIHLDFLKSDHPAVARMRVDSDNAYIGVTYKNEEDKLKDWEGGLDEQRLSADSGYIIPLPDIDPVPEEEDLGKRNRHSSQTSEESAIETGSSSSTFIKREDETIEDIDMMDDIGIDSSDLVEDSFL
T3 sequence (P09619 33-1106, species assumed): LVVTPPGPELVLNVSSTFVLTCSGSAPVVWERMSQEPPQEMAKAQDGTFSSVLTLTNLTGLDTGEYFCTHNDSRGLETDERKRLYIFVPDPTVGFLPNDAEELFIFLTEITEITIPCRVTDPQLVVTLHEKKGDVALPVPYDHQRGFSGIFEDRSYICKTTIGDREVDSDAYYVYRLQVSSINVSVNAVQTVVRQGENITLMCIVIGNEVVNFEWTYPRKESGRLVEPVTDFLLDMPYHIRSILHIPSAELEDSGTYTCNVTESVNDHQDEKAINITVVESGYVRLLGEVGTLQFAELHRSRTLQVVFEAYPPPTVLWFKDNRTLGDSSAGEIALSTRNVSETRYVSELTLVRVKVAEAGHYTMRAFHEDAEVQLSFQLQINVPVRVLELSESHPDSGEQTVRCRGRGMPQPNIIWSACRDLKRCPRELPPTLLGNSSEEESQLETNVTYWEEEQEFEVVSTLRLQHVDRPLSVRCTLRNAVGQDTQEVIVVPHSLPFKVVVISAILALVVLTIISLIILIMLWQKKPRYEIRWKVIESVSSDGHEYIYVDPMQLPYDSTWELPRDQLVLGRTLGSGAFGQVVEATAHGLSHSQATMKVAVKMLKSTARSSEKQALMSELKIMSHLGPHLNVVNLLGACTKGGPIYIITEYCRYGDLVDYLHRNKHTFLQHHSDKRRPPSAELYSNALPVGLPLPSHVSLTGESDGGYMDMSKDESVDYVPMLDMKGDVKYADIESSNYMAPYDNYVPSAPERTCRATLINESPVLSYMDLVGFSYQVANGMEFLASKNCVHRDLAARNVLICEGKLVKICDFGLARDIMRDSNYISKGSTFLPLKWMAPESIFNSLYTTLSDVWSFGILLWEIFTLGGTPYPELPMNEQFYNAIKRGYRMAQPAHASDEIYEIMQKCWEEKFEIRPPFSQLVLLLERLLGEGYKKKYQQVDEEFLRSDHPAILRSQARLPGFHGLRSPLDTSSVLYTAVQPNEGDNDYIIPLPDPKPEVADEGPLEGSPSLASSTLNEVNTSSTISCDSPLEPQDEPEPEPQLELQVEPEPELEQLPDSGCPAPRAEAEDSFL

SMILES: CNC(=O)c1cccc2cc(Oc3ccnc4cc(OCC5(N)CC5)c(OC)cc34)ccc12 [AL3810, 6-[[7-[(1-aminocyclopropyl)methoxy]-6-methoxy-4-quinolyl]oxy]-N-methyl-naphthalene-1-carboxamide]
IC50 against FGFR lower than sorafenib (FGFR1 [1]): 25 fold
reversibility of VEGFR2 inhibition (VEGFR2 [2]): reversible inhibitor
PDGFBB-induced PDGFRβ autophosphorylation (PDGFRβ [3]; 100 nmol/l, Swiss3T3, PDGF-BB 40 ng/ml): inhibited; also recorded: almost completely block
bioavailability ([4]; rat, in vivo, po): 31%
Tmax ([4]; rat, plasma, po, 10 mg): 6 h
concentration at 24 hrs ([4]; rat, plasma, po, 10 mg): < 50 ng/mL
maximal plasma concentration ([4]; rats, 10 mg p.o.): ~1000 ng/mL
toxicity in xenograft-bearing mice [5]: no obvious toxicity observed
IC50 (HUVEC cells [6]): 140 nM
IC50 (EPH-B2): 902 nM
tumour response [7]: tumour regression
IC50 (HUVEC cells [8]): 42 nM
exposure in liver, improvement versus first administration [9, 27]: 1.6 times
exposure in lung, improvement versus first administration [9, 27]: 1.4 times
exposure in renal tissue, improvement versus first administration [9, 27]: 2.1 times
exposure in tumours, improvement versus first administration [9, 27]: 2.9 times
concentration at 21 day ([9]; kidney): 398 ng/g
concentration at 21 day ([9]; liver): 276 ng/g
concentration at 21 day ([9]; lung): 208 ng/g
concentration at 21 day ([9]; plasma): 7.8 ng/mL
concentration at 21 day ([9]; tumour): 403 ng/g
IC50 (FGFR1 [10]): 7 nM
IC50 (PDGFRβ [11]): 8 nM
tumour response [12]: tumour regression
IC50 [13]: ~18700 nM
T/C ([14]; No.213847, 5 mg/kg p.o., 5 days per week): 9.01%
tumour response ([14]; No.213847, 10–20 mg/kg): tumour regression
reduction of PDGFRβ positive cells ([15]; 5 mg/kg): 52%
reduction of PDGFRβ positive cells ([15]; 10 mg/kg): 73%
reduction of PDGFRβ positive cells ([15]; 20 mg/kg): 86%
Tyr996 phosphorylation of VEGFR2 (VEGFR2 [16]): inhibited
VEGFR2 autophosphorylation (VEGFR2 [16]): almost completely blocked
IC50 (PDGFRβ [17]): 525 nM
mode of inhibition versus ATP (VEGFR2 [18]): ATP competitive
bFGF-induced FGFR1 autophosphorylation / activation (FGFR1 [19]): blocked
VEGFR2 phosphorylation after inhibitor washout (VEGFR2 [20]; 6 hrs after removal): recovered substantially
VEGFR2 phosphorylation after inhibitor washout (VEGFR2 [20]; 24 hrs after washout): total restoration
IC50 (c-Src): 4900 nM
IC50 (c-Kit): 527 nM
reduction of vessel density (CD31) ([21]; 5 mg/kg): 45%
reduction of vessel density (CD31) ([21]; 10 mg/kg): 80%
reduction of vessel density (CD31) ([21]; 20 mg/kg): 90%
VEGF-induced activation of ERK1/2 and AKT (ERK1/2 and AKT): dramatically inhibited
IC50 (VEGFR1): 12 nM
inhibition rate of blood vessel numbers and branching ([22]; 0.3 nmol/egg): 45.4%
inhibition rate of blood vessel numbers and branching ([22]; 1 nmol/egg): 82.5%
IC50 (PDGFRα [23]): 175 nM
IC50 (PDGFRα [24]): 13 nM
IC50 (VEGFR2 [25]): 4 nM
IC50 (RET): 200 nM
IC50 (EPH-A2): 6660 nM
T/C ([26]; No.20090223, 5 mg/kg p.o., 5 days per week): 13.3%
tumour response ([26]; No.20090223, 10–20 mg/kg): tumour regression

PDGFRβ activation (PDGFRβ [3]; Swiss3T3, concentration not stated): potent inhibitory effects
bFGF-induced FGFR1 autophosphorylation / activation (FGFR1 [19]): potent inhibitory effects
SMILES: CNC(=O)c1cc(Oc2ccc(NC(=O)Nc3ccc(Cl)c(C(F)(F)F)c3)cc2)ccn1 [Sorafenib, reference compound]
IC50 (HUVEC cells [6]): 2260 nM
IC50 (HUVEC cells [8]): 337 nM

From article PMC3823425 (Journal of Cellular and Molecular Medicine, 2012)
